We go through ten compounds from patent US20260258084A1, “New Peptides as Selective IL-23 Receptor Antagonists” (Sanofi, priority 2022, published 2026).

Starred links: 1 amine or outer side, 2 acyl side, 3 side chain; linkers in the order of their positions; H or OH if unused. Positions of bridges follow the written chain, without caps; N, C: chain ends. Non-standard residues stand in square brackets, D forms with d. Residues, ends and D or L forms follow the SMILES beside them. *: point of attachment. Trp(7-Me) = Cc1cccc2c(C[C@H](N)C(=O)O)c[nH]c12; X1 = O=C(CCCCN[*:3])N[C@@H](CS[*:2])C(=O)[*:1]; αMeLys(Me2) = CN(C)CCCC[C@](C)(N)C(=O)O; 2Nal = N[C@@H](Cc1ccc2ccccc2c1)C(=O)O; AEF = NCCOc1ccc(C[C@H](N)C(=O)O)cc1; NMe5Ava = CN(CCCCC(=O)[*:2])[*:1]; 3Pal = N[C@@H](Cc1cccnc1)C(=O)O; αMeL = CC(C)C[C@](C)(N)C(=O)O; Me2NCH2CH2 = CN(C)CC*; Aib = CC(C)(N)C(=O)O; Ahx = NCCCCCC(=O)O; Ava = NCCCCC(=O)O; Sar = CNCC(=O)O

The target in data set [1] is T1, human interleukin-23 receptor (recombinant human IL-23R-Fc chimera) (Homo sapiens, UniProt Q5VWK5).
T1 construct: Fc (IgG Fc fusion)
In words: Human ELISA IL23/IL23R (assay for specific human IL23R antagonists). The note with it: Table 10; read-out: Human ELISA IL23/IL23R IC50. It counts as binding. Summed up: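 Competition format: peptide dilutions compete for IL23R-Fc chimera (0.1 μg/ml final, 60 min, room temperature) binding to immobilized human IL23 coated at […] overnight at 4 °C. Read-out is fluorogenic HRP signal from goat anti-hu-IgG1 detecting captured receptor.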

Data set [2] deals with IL-23 induced STAT3 signaling in HEK-Blue™ IL-23 cells. In words: IL-23 induced STAT3 signaling in HEK-Blue IL-23 cells (SEAP reporter). It counts as cell-based. The note with it: human IL23 0.25 ng/ml, read-out: pSTAT3. Summed up: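 Secreted SEAP, read at OD 620-655 nm after 45 min QUANTI-Blue development, reports STAT3 activation. Beforehand, cells were exposed to peptide dilutions for 60 min at 37 °C and then to 0.25 ng/ml final human IL-23 overnight, at 10,000 cells/well.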

The subject of another data set is T2, Pepsin.
T2 construct: purchased Merck Millipore
In words: Protease stability in simulated gastric fluid (Pepsin-SGF, FaSSGF). It counts as in vitro ADME. The note with it: simulated gastric fluid with pepsin (Pepsin-SGF), 60 min, 1 μM peptide, 37° C., read-out: FaSSGF 60 (min), remaining percent of peptide. Summed up:
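LCMS/MS peak areas, normalised to the time-0 sample as 100%, give percent remaining. Conditions: 37° C incubation of 1 μM final peptide in simulated gastric fluid with pepsin; ethanol/0.1% HCOOH quench at 0, 60, 120, 240 min.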

The subject of the next data set is Pancreatin. In words: Protease stability in simulated intestinal fluid (Pancreatin-SIF, FaSSIF). Format: in vitro ADME. The note with it: 1 μM peptide, 37° C.; for remaining at 1 h, 1 µM: 60 min, read-out: FaSSIF 60 (min), remaining percent of peptide; for remaining at 2 h, 1 µM: 120 min, read-out: FaSSIF 120 (min), remaining percent of peptide; for remaining at 4 h, 1 µM: 240 min, read-out: FaSSIF 240 (min), remaining percent of peptide. The essentials:
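LC-MS/MS peak areas at 0, 60, 120 and 240 min, normalised to time 0 as 100%, give percent remaining. Reactions used 1 μM final peptide at 37° C in pancreatin-SIF (1 mg pancreatin in 10 mL SIF concentrate) and were stopped with ethanol containing 0.1% HCOOH.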

In the case of `CC(=O)N[C@H]1CCCCNC(=O)[C@@H]2CSSC[C@H](NC(=O)[C@H](CCC(N)=O)NC(=O)[C@H](Cc3c[nH]c4ccccc34)NC1=O)C(=O)N[C@@H](Cc1ccc(OCCN(C)C)cc1)C(=O)N[C@@H](Cc1ccc3ccccc3c1)C(=O)NC(C)(C)C(=O)N[C@H](C(=O)N[C@@H](CC(N)=O)C(=O)NCC(N)=O)CCC(=O)NCCCCC(=O)N2` [compound 29] (Ac-KWQCY(Me2NCH2CH2)[2Nal][Aib]ENG-NH2; linker 1-4-8 via X1), the IC50 in data set [1] amounted to 450 pM. In data set [2], the IC50 came to 8160 pM. Further, the share remaining at 1 h, 1 µM in the data set on Pepsin is 70%. In the data set with Pancreatin, the share remaining at 1 h, 1 µM was 73%; the share remaining at 2 h, 1 µM is 58%; the fraction remaining at 4 h, 1 µM is 47%.

With `CC(=O)N[C@H]1CCCCNC(=O)[C@@H]2CSSC[C@H](NC(=O)[C@H](CCC(N)=O)NC(=O)[C@H](Cc3c[nH]c4ccccc34)NC1=O)C(=O)N[C@@H](Cc1ccc(OCCN(C)C)cc1)C(=O)N[C@@H](Cc1ccc3ccccc3c1)C(=O)N[C@@](C)(CC(C)C)C(=O)N[C@H](C(=O)N[C@@H](CC(N)=O)C(=O)NCC(N)=O)CCC(=O)NCCCCC(=O)N2` [compound 31] (Ac-KWQCY(Me2NCH2CH2)[2Nal][αMeL]ENG-NH2; linker 1-4-8 via X1), the IC50 in data set [1] was 360 pM; in data set [2] it was 5230 pM. For the same compound, the share remaining at 1 h, 1 µM in the data set on Pepsin was 99%; with Pancreatin, 83%. In addition, the share remaining at 2 h, 1 µM in the data set on Pancreatin is 72%. For the same compound, the amount remaining at 4 h, 1 µM with Pancreatin is 55%.

Take `CC[C@H](C)[C@H](NC(=O)[C@H](CC(N)=O)NC(=O)[C@H](CC(N)=O)NC(=O)[C@@H]1CCC(=O)NCCCCC(=O)N[C@H]2CSSC[C@H](NC(=O)[C@H](CCCCNC(C)=O)NC(=O)[C@H](Cc3c[nH]c4ccccc34)NC(=O)[C@H]([C@@H](C)O)NC(=O)[C@H](CC(N)=O)NC2=O)C(=O)N[C@@H](Cc2ccc(OCCN(C)C)cc2)C(=O)N[C@@H](Cc2ccc3ccccc3c2)C(=O)NC(C)(C)C(=O)N1)C(N)=O` [compound 38] ([Ava]CNTWK(Ac)CY(Me2NCH2CH2)[2Nal][Aib]ENNI-NH2; disulfide 2-7; lactam N-11): the IC50 in data set [1] amounted to 360 pM. Besides, the IC50 in data set [2] turned out to be 11900 pM. The share remaining at 1 h, 1 µM in the data set with Pepsin is 86%. In the data set on Pancreatin, the fraction remaining at 1 h, 1 µM was 100%; the amount remaining at 2 h, 1 µM is 96%; the share remaining at 4 h, 1 µM is 84%.

Regarding `CC(C)C[C@]1(C)NC(=O)[C@H](Cc2ccc3ccccc3c2)NC(=O)[C@H](Cc2ccc(OCCN(C)C)cc2)NC(=O)[C@@H]2CSSC[C@H](NC(=O)CCCCN(C)C(=O)CC[C@@H](C(=O)N[C@@H](CC(N)=O)C(=O)N[C@@H](CC(N)=O)C(N)=O)NC1=O)C(=O)N[C@@H](CC(N)=O)C(=O)N[C@@H]([C@@H](C)O)C(=O)N[C@@H](Cc1c[nH]c3ccccc13)C(=O)N[C@@H](CCC(N)=O)C(=O)N2` [compound 41] ([NMe5Ava]CNTWQCY(Me2NCH2CH2)[2Nal][αMeL]ENN-NH2; disulfide 2-7; lactam N-11), the IC50 in data set [1] is 350 pM; in data set [2], 1600 pM. Also, the results for the amount remaining at 1 h, 1 µM with Pepsin and in the data set on Pancreatin were 90% and 83%, respectively. Also, the fraction remaining at 2 h, 1 µM in the data set on Pancreatin is 71%. For the same compound, the share remaining at 4 h, 1 µM with Pancreatin is 57%.

As for `Cc1cccc2c(C[C@@H]3NC(=O)[C@H]([C@@H](C)O)NC(=O)[C@H](CC(N)=O)NC(=O)[C@@H]4CSSC[C@H](NC(=O)[C@H](CCC(N)=O)NC3=O)C(=O)N[C@@H](Cc3ccc(OCCN(C)C)cc3)C(=O)N[C@@H](Cc3ccc5ccccc5c3)C(=O)NC(C)(C)C(=O)N[C@H](C(=O)N[C@@H](CO)C(=O)N[C@@H](Cc3c[nH]cn3)C(N)=O)CCC(=O)NCCCCC(=O)N4)c[nH]c12` [compound 43] ([Ava]CNT[Trp(7-Me)]QCY(Me2NCH2CH2)[2Nal][Aib]ESH-NH2; disulfide 2-7; lactam N-11), the IC50 in data set [1] amounted to 330 pM; in data set [2], 1310 pM. Moreover, the fraction remaining at 1 h, 1 µM with Pepsin was 100%; in the data set with Pancreatin, 83%. Besides, the fraction remaining at 2 h, 1 µM in the data set with Pancreatin was 72%. The fraction remaining at 4 h, 1 µM with Pancreatin was 67%.

With `Cc1cccc2c(C[C@@H]3NC(=O)[C@H]([C@@H](C)O)NC(=O)[C@H](CC(N)=O)NC(=O)[C@@H]4CSSC[C@H](NC(=O)[C@H](CCC(N)=O)NC3=O)C(=O)N[C@@H](Cc3ccc(OCCN(C)C)cc3)C(=O)N[C@@H](Cc3ccc5ccccc5c3)C(=O)NC(C)(C)C(=O)N[C@H](C(=O)N[C@@H](CC(N)=O)C(=O)N[C@@H](Cc3c[nH]cn3)C(N)=O)CCC(=O)NCCCCC(=O)N4)c[nH]c12` [compound 52] ([Ava]CNT[Trp(7-Me)]QCY(Me2NCH2CH2)[2Nal][Aib]ENH-NH2; disulfide 2-7; lactam N-11), the IC50 in data set [1] stood at 500 pM. In data set [2], the IC50 worked out at 1250 pM. In addition, the fraction remaining at 1 h, 1 µM in the data set on Pepsin is 102%. In the data set with Pancreatin, the amount remaining at 1 h, 1 µM was 81%; the fraction remaining at 2 h, 1 µM is 76%; the fraction remaining at 4 h, 1 µM is 65%.

Take `C[C@H](NC(=O)[C@@H]1CC(=O)NCCCCCC(=O)N[C@H]2CSSC[C@H](NC(=O)[C@H](CCC(N)=O)NC(=O)[C@H](Cc3c[nH]c4ccccc34)NC(=O)CCCCNC2=O)C(=O)N[C@@H](Cc2ccc(OCCN)cc2)C(=O)N[C@@H](Cc2ccc3ccccc3c2)C(=O)NC(C)(C)C(=O)N1)C(=O)NCC(N)=O` [compound 53] ([Ahx]C[Ava]WQC[AEF][2Nal][Aib]DAG-NH2; disulfide 2-6; lactam N-10): in data set [1], the IC50 was found to be 700 pM. For the same compound, in data set [2], the IC50 was found to be 60800 pM. Besides, the amount remaining at 1 h, 1 µM with Pepsin was 0%. Moreover, in the data set with Pancreatin, the share remaining at 1 h, 1 µM was 95%; the share remaining at 2 h, 1 µM is 89%; the amount remaining at 4 h, 1 µM is 75%.

As for `CC(=O)NCCCC[C@@H]1NC(=O)[C@H](Cc2c[nH]c3c(C)cccc23)NC(=O)[C@H]([C@@H](C)O)NC(=O)[C@H](CC(N)=O)NC(=O)[C@@H]2CSSC[C@H](NC1=O)C(=O)N[C@@H](Cc1ccc(OCCN(C)C)cc1)C(=O)N[C@@H](Cc1ccc3ccccc3c1)C(=O)N[C@@](C)(CCCCN(C)C)C(=O)N[C@H](C(=O)N[C@@H](CC(N)=O)C(=O)N[C@H](CC(C)C)C(N)=O)CCC(=O)NCCCCC(=O)N2` [compound 54] ([Ava]CNT[Trp(7-Me)]K(Ac)CY(Me2NCH2CH2)[2Nal][αMeLys(Me2)]EN[dL]-NH2; disulfide 2-7; lactam N-11), the IC50 in data set [1] is 510 pM. Moreover, in data set [2], the IC50 is 2590 pM. Besides, the fraction remaining at 1 h, 1 µM with Pepsin was 91%. Further, in the data set with Pancreatin, the share remaining at 1 h, 1 µM was 100%; the fraction remaining at 2 h, 1 µM was 100%; the amount remaining at 4 h, 1 µM was 90%.

`CC[C@H](C)[C@H](NC(=O)[C@H](CC(N)=O)NC(=O)[C@H](CC(N)=O)NC(=O)[C@@H]1CCC(=O)NCCCCC(=O)N[C@H]2CSSC[C@H](NC(=O)[C@H](CCC(N)=O)NC(=O)[C@H](Cc3c[nH]c4ccccc34)NC(=O)[C@H]([C@@H](C)O)NC(=O)[C@H](CC(N)=O)NC2=O)C(=O)N[C@@H](Cc2ccc(OCCN(C)C)cc2)C(=O)N[C@@H](Cc2ccc3ccccc3c2)C(=O)NC(C)(C)C(=O)N1)C(N)=O` [compound 57] ([Ava]CNTWQCY(Me2NCH2CH2)[2Nal][Aib]ENNI-NH2; disulfide 2-7; lactam N-11): the IC50 in data set [1] is 230 pM. The IC50 in data set [2] was found to be 5500 pM. Moreover, in the data set on Pepsin, the fraction remaining at 1 h, 1 µM was 61%. For the same compound, in the data set on Pancreatin, the amount remaining at 1 h, 1 µM is 95%; the amount remaining at 2 h, 1 µM is 80%; the amount remaining at 4 h, 1 µM is 52%.

As to `CC(=O)NCCCC[C@@H]1NC(=O)[C@H](Cc2c[nH]c3ccccc23)NC(=O)[C@H]([C@@H](C)O)NC(=O)[C@H](CC(N)=O)NC(=O)[C@@H]2CSSC[C@H](NC1=O)C(=O)N[C@@H](Cc1ccc(OCCN(C)C)cc1)C(=O)N[C@@H](Cc1ccc3ccccc3c1)C(=O)N[C@@](C)(CCCCN(C)C)C(=O)N[C@H](C(=O)N[C@@H](CC(N)=O)C(=O)N[C@@H](Cc1cccnc1)C(=O)N(C)CC(N)=O)CCC(=O)NCCCCC(=O)N2` [compound 58] ([Ava]CNTWK(Ac)CY(Me2NCH2CH2)[2Nal][αMeLys(Me2)]EN[3Pal][Sar]-NH2; disulfide 2-7; lactam N-11), the IC50 was 160 pM in data set [1] and 100 pM in data set [2]. Further, the amount remaining at 1 h, 1 µM in the data set on Pepsin was 93%; with Pancreatin, 100%. The fraction remaining at 2 h, 1 µM with Pancreatin was 98%. For the same compound, in the data set with Pancreatin, the amount remaining at 4 h, 1 µM is 80%.
